{"source": "patent US20200268832A1", "about": "“COMPOSITIONS FOR DELIVERY TO AND TREATMENT OF ATHEROSCLEROTIC PLAQUES” (Sanford Burnham Prebys Medical Discovery Institute, priority 2015, published 2020)", "key": {"plaque macrophages": {"test_system": "plaque macrophages", "experiment": "Cytotoxicity to plaque macrophages ex vivo", "format": "cell-based", "source_text": "Two of the hits from the screen passed all the specificity tests, and one of these has been characterized to some extent in vivo (FIG. 10). […] Thus, the discovered compounds, especially #008 and #7933989, served as a starting point for other compounds with affinity for p32. Orally available compounds provide significant new opportunities in prevention and treatment of atherosclerosis."}, "[1]": {"test_system": "orthotopic MCF10Ca1A breast tumors", "experiment": "In vivo homing of iron oxide nanoworms in tumor-bearing mice", "conditions": "IV, 7.5 mg Fe/kg, 5-6 hours circulation", "protocol": "FIG. 10 is a graph of nanoparticles functionalized with compound #008 homing to tumors and atherosclerotic plaques. Orthotopic MCF10Ca1Abreast tumors from mice injected with iron oxide […] (NWs) (7.5 mg/kg of Fe) coated with FAM-#008 or with an inert peptide (control). The NWs were allowed to circulate for 5 hours, the mice were perfused through the heart with PBS and tumors, and organs were collected. Quantification of fluorescence carried out with ImageJ software. Multiple sections from three tumors were analyzed (P<0.0001, Student's t-test).\nAnimal experimentation was performed according to the procedures approved by the Animal Research Committee at the Sanford-Burnham Medical Research Institute, San Diego. […] FAM labeled #4014008-NWs were injected into the tail vein (7.5 mg of iron per kilogram of body weight), the animals were euthanized 5-6 hours after the injection by cardiac perfusion with PBS under anesthesia, and organs were dissected and analyzed for particle homing. […]\nFor immunostaining, […] tissue sections were first incubated for 1 hour at room temperature with 10% serum from the species in which the secondary antibody was generated, followed by incubation with the primary antibody overnight at 4° C. […] The primary antibodies were detected with Alexa 594 goat anti-rat and 594 goat anti-rabbit secondary antibodies (1:1000; Molecular Probes). […]"}, "p32 protein": {"target": "T1, p32 protein (Homo sapiens, UniProt Q07021)", "T1 construct": "6xHis; host or cells: Rosetta-gami-2 cells (Novagen); an E. coli strain by own knowledge", "T1 sequence (Q07021 74-282)": "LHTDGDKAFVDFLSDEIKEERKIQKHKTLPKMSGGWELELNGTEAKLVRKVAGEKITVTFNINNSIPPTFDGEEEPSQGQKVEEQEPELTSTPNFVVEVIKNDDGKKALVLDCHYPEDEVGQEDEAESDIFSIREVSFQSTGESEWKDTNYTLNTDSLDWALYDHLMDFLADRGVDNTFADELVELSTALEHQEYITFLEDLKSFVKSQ", "experiment": "Fluorescence polarization assay: displacement of FAM-TT1 from p32 (HTS, dose response, unlabeled peptide competition)", "format": "binding", "protocol": "Fluorescence polarization (FP)-based assay was used for solution-based screening of compound libraries for p32 binding compounds. […] In FP assay, peptide conjugated with a fluorescent label (fluorescein-AM, FAM) is excited with polarized light. […] 6×-His-Tagged p^32 was expressed in Rosetta-gami-2 cells (Novagen). The protein was purified by IMAC using HIS-select resin (Sigma) with an imidizole gradient from 20-300 mM and eluted fractions were analyzed on analytical SDS-PAGE. […] Fluorescence polarization is given as milli-polarization (mP) value, which is obtained from equation (1):\nmP=1000*(S−P)/(S+P), (Eq. 1)\nThe assay was initially set up in 20 μl well volume in 384 well plate (Corning Life Sciences), and measurements were carried out using PheraStar FS plate reader (BMG LABTECH, Ortenberg, Germany) in quadruplicate. Peptide and protein stock solutions were diluted to desired concentration with assay buffer (50 mM BIS-TRIS pH 7.4, 0.05% Tween20, 1 mM DTT). FAM-labeled peptides were protected from light during the experiment to avoid photobleaching. Optimal concentration of fluorescein (FAM) labeled-peptides for the assay was determined by measuring the limit of detection (LOD), signal-to-background ratio (S/B), and stability of mP value over series of peptide concentrations. In the binding assay, the concentration of FAM-peptide was kept constant, and the FP was measured over the range of target protein concentrations. The peptide dissociation constant (KD) was obtained by fitting the binding curve into Michaelis-Menten kinetics in GraphPad Prism-software (GraphPad Software, Inc., CA, USA).\nFAM-TT-1 and p32 solutions are prepared just before experiment, and stored on ice during the screen; the peptide is shielded from light. • 1. […] Dispense 1.5 μL of assay buffer (50 mM BIS-TRIS pH 7.4, 0.05% Tween 20, 1 mM DTT) into columns 1-4 • 3. […] Dispense 37.5 nL of compounds (2 mM) into columns 5-44 • 5. Spin plate • 6. Incubate 20 min • 7. Dispense 1.5 μL FAM-TT-1 peptide (20 nM) into all columns • 8. Shake plate and spin plate • 9. Incubate 25 min • 10. Read plate on PheraStar FS\nChemical library of ˜50,000 compounds from ChemBridge (San Diego, Calif.) was screened in High-Throughput Screening Facility at Conrad Prebys Center for Chemical Genomics (Sanford-Burnham Medical Research Institute, La Jolla, Calif.). […] Peptide and protein were diluted immediately prior to screening, kept on ice during screening, and FAM-peptide was protected from light throughout the experiment. […]"}}, "data": [{"smiles": "Cc1cnccc1NCCN", "note": "[Compound 4014008, N-(3-methylpyridin-4-yl)ethane-1,2-diamine]", "values": [{"measurement": "cytotoxicity to plaque macrophages", "setting": "plaque macrophages", "value": "cytotoxic to plaque macrophages"}, {"measurement": "homing to MCF10Ca1A tumors", "setting": "[1]", "value": "specifically home to tumors"}, {"measurement": "inhibition at 25 µM", "setting": "p32 protein; high-throughput screen hits, inhibition of TT1-p32 interaction, library compounds 25 μM (Table 1), b410 says 100 μM", "value": 29.9, "unit": "%"}, {"measurement": "inhibition at 100 µM", "setting": "p32 protein; highest concentration used, 100 μM, read-out: inhibition of FAM-TT1 binding to p32 in FP assay", "value": 75, "unit": "%"}]}]}
